In patent US10023579B2, “Pyrrolopyrimidine compounds, use as inhibitors of the kinase LRRK2, and methods for preparation thereof” (Southern Research Institute, priority 2015, dated 2018):
“And” between values parts separate entries of the source, which are not always exact repeats. Identical values can stand only once.

Tests used:
[1] = target: T1, G2019S-LRRK2 (recombinant GST-LRRK2 delta970) (Homo sapiens, UniProt Q5S007, G2019S); assay: LRRK2 kinase assay, G2019S mutant (32P radiometric, peptide substrate); format: biochemical; settings: G2019S-LRRK2 30 nM, ATP ~52 μM (Km), 30 min at 30° C.
T1 construct: Recombinant GST-LRRK2 (delta970); GST (N); host or cells: baculovirus-infected Sf9 insect cells
Procedure: (§1) Compounds were assessed for inhibition of LRRK2 inhibition using the following procedure. Recombinant GST-LRRK2 (delta970) purified from baculovirus infected insect cells (SF9), at least 90% pure and either wild-type sequence or bearing the pathogenic G2019S mutation, was combined into a kinase buffer at 30 nM concentration. Kinase buffer consists of 50 mM Tris HCl pH 7.4, 1 mM EDTA, and 50 μM peptide substrate (amino acid sequence […]). Experimental compounds or control (no compound) were added at desired concentrations in DMSO and water, where final concentration of DMSO in kinase reactions was 0.1% for all drug concentrations. […] Reactions were incubated at 1400 RPM at 30° C. for 30 min. and then spotted in triplicate directly onto a slot-blot apparatus fitted with phospho-cellulose paper and allowed to dry. Each slot was then washed with 10 mM phosphoric acid buffer until beta-radiation could not be detected in eluted wash buffer, usually ˜1 mL per slot. Paper within each slot were excised and radiation measured by liquid scintillation.

[2] = target: T2, WT-LRRK2 (recombinant GST-LRRK2 delta970) (Homo sapiens, UniProt Q5S007); assay: LRRK2 kinase assay, wild type (32P radiometric, peptide substrate); format: biochemical; settings: WT-LRRK2 30 nM, ATP ~92 μM (Km), 30 min at 30° C.
T2 construct: Recombinant GST-LRRK2 (delta970); GST (N); host or cells: baculovirus-infected Sf9 insect cells
Procedure: as §1

T2 sequence (Q5S007 970-2527 limits assumed): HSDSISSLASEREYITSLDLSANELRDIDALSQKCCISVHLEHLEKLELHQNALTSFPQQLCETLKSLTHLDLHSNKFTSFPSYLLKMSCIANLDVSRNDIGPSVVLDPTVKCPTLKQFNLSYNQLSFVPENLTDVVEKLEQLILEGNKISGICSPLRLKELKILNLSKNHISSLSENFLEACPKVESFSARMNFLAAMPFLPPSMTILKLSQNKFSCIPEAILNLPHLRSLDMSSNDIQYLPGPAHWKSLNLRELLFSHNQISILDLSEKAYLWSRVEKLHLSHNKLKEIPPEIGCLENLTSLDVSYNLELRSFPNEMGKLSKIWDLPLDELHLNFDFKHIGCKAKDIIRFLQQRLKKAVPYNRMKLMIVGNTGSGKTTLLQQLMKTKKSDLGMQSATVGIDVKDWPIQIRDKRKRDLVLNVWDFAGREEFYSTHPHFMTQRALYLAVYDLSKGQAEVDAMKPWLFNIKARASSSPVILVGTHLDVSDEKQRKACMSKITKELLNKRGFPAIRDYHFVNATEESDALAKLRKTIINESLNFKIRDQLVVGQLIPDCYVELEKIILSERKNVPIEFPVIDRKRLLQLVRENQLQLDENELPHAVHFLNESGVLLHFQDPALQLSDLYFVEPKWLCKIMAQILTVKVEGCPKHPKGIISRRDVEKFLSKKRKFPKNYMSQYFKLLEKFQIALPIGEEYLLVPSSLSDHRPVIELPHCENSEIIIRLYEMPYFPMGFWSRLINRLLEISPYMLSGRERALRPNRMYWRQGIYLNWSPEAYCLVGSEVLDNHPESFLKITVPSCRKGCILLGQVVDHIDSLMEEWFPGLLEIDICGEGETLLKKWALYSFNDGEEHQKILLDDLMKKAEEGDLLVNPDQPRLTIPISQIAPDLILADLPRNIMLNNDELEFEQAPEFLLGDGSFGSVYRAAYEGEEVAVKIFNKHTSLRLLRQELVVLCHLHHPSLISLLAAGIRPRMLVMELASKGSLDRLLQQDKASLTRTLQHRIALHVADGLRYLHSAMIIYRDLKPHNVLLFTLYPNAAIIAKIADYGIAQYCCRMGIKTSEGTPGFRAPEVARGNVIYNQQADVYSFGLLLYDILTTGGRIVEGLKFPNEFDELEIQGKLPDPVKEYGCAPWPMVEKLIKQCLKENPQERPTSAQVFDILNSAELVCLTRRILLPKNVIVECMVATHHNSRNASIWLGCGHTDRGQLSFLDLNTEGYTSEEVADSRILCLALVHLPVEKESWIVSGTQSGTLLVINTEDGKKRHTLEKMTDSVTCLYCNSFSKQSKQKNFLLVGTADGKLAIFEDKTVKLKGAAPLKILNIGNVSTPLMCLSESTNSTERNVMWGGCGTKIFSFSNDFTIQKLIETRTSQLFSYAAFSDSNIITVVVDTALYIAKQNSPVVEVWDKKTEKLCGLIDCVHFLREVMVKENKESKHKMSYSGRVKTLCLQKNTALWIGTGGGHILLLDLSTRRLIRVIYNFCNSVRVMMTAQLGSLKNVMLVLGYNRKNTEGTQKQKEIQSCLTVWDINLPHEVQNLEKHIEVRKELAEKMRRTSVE
T1 sequence (Q5S007 970-2527 G2019S limits assumed): as the sequence (Q5S007 970-2527 limits assumed) above, with G1050S counted along it

Row | Compound | IC50 [1] | IC50 [2]
1 | CC(C)n1cc(Nc2nc(N(C)[C@@H](C)C3CC3)c3cc[nH]c3n2)cn1 [Compound 48, (S)-N4-(1-cyclopropylethyl)-N2-(1-isopropyl-1H-pyrazol-4-yl)-N4-methyl-7H-pyrrolo[2,3-d]pyrimidine-2,4-diamine] | 0.044 µM | 0.019 µM
2 | COCCn1cc(Nc2nc(N[C@@H](C)C3CC3)c3cc[nH]c3n2)cn1 [Compound 32, (S)-N4-(1-cyclopropylethyl)-N2-(1-(2-methoxyethyl)-1H-pyrazol-4-yl)-7H-pyrrolo[2,3-d]pyrimidine-2,4-diamine] | 0.011 µM | 0.011 µM
3 | C[C@H](Nc1nc(Nc2cn([C@H]3CCOC3)nn2)nc2[nH]ccc12)C1CC1 [Compound 51, N4-((S)-1-cyclopropylethyl)-N2-(1-((S)-tetrahydrofuran-3-yl)-1H-1,2,3-triazol-4-yl)-7H-pyrrolo[2,3-d]pyrimidine-2,4-diamine] | 0.102 µM | 0.066 µM
4 | Cc1cc(Nc2nc(N[C@@H](C)C3CC3)c3cc[nH]c3n2)n[nH]1 [Compound 36, (S)-N4-(1-cyclopropylethyl)-N2-(5-methyl-1H-pyrazol-3-yl)-7H-pyrrolo[2,3-d]pyrimidine-2,4-diamine] | 0.044 µM | 0.038 µM
5 | Cc1cc(Nc2nc(N[C@@H](C)C3CC3)c3nc[nH]c3n2)n[nH]1 [Compound 10, (S)-N6-(1-cyclopropylethyl)-N2-(5-methyl-1H-pyrazol-3-yl)-9H-purine-2,6-diamine] | 0.048 µM | 0.019 µM
6 | COCC(C)n1cc(Nc2nc(N(C)[C@@H](C)C3CC3)c3cc[nH]c3n2)cn1 (stereo partly drawn) [Compound 49, N4-((S)-1-cyclopropylethyl)-N2-(1-(1-methoxypropan-2-yl)-1H-pyrazol-4-yl)-N4-methyl-7H-pyrrolo[2,3-d]pyrimidine-2,4-diamine] | 0.069 µM | 0.027 µM
7 | CC(C)n1cc(Nc2nc(N[C@@H](C)c3ccccc3)c3cc[nH]c3n2)cn1 [Compound 22, (S)-N2-(1-isopropyl-1H-pyrazol-4-yl)-N4-(1-phenylethyl)-7H-pyrrolo[2,3-d]pyrimidine-2,4-diamine] | 0.056 µM | 0.037 µM
8 | C[C@H](Nc1nc(Nc2cn(C3CCOC3)nn2)nc2[nH]ccc12)C1CC1 (stereo in doubt) [Compound 50, N4-((S)-1-cyclopropylethyl)-N2-(1-((S)-tetrahydrofuran-3-yl)-1H-1,2,3-triazol-4-yl)-7H-pyrrolo[2,3-d]pyrimidine-2,4-diamine] | 0.061 µM | 0.04 µM
9 | CC(C)n1cc(Nc2nc(NC3CCC3)c3cc[nH]c3n2)cn1 [Compound 8, N4-cyclobutyl-N2-(1-isopropyl-1H-pyrazol-4-yl)-7H-pyrrolo[2,3-d]pyrimidine-2,4-diamine] | 0.009 µM | 0.005 µM
10 | COCc1cc(Nc2nc(N[C@@H](C)C3CC3)c3cc[nH]c3n2)n[nH]1 [Compound 61, (S)-N4-(1-cyclopropylethyl)-N2-(5-(methoxymethyl)-1H-pyrazol-3-yl)-7H-pyrrolo[2,3-d]pyrimidine-2,4-diamine] | 0.099 µM | 0.064 µM
11 | CC(C)n1cc(Nc2nc(N[C@@H](C)c3ccccn3)c3cc[nH]c3n2)cn1 [Compound 35, (S)-N2-(1-isopropyl-1H-pyrazol-4-yl)-N4-(1-(pyridin-2-yl)ethyl)-7H-pyrrolo[2,3-d]pyrimidine-2,4-diamine] | 0.097 µM | 0.066 µM
12 | C[C@H](Nc1nc(Nc2cn(C3COC3)nn2)nc2[nH]ccc12)C1CC1 [Compound 56, (S)-N4-(1-cyclopropylethyl)-N2-(1-(oxetan-3-yl)-1H-1,2,3-triazol-4-yl)-7H-pyrrolo[2,3-d]pyrimidine-2,4-diamine] | 0.115 µM | 0.073 µM
13 | C[C@H](Nc1nc(Nc2cnn(C)c2)nc2[nH]cnc12)C1CC1 [Compound 9, (S)-N6-(1-cyclopropylethyl)-N2-(1-methyl-1H-pyrazol-4-yl)-9H-purine-2,6-diamine] | 0.1 µM | 0.038 µM
14 | C[C@H](Nc1nc(Nc2cn([C@@H](C)CO)nn2)nc2[nH]ccc12)C1CC1 [Compound 58, (S)-2-(4-((4-(((S)-1-cyclopropylethyl)amino)-7H-pyrrolo[2,3-d]pyrimidin-2-yl)amino)-1H-1,2,3-triazol-1-yl)propan-1-ol] | 0.101 µM | 0.072 µM
15 | C[C@H](Nc1nc(Nc2cnn(C)c2)nc2[nH]ccc12)C1CC1 [Compound 28, (S)-N4-(1-cyclopropylethyl)-N2-(1-methyl-1H-pyrazol-4-yl)-7H-pyrrolo[2,3-d]pyrimidine-2,4-diamine] | 0.03 µM | 0.02 µM
16 | CNC(=O)C(C)n1cc(Nc2nc(N[C@@H](C)C3CC3)c3cc[nH]c3n2)c(Cl)n1 (stereo partly drawn) [Compound 46, 2-(3-chloro-4-((4-(((S)-1-cyclopropylethyl)amino)-7H-pyrrolo[2,3-d]pyrimidin-2-yl)amino)-1H-pyrazol-1-yl)-N-methylpropanamide] | 0.017 µM | 0.012 µM

The remaining lines, values ahead:

Row | IC50 [1] | IC50 [2] | Compound
17 | 0.023 µM | 0.02 µM | C[C@H](Nc1nc(Nc2cnn(C3CCN(C)CC3)c2)nc2[nH]ccc12)C1CC1 [Compound 31, (S)-N4-(1-cyclopropylethyl)-N2-(1-(1-methylpiperidin-4-yl)-1H-pyrazol-4-yl)-7H-pyrrolo[2,3-d]pyrimidine-2,4-diamine]
18 | 0.049 µM | 0.037 µM | Cc1c(Nc2nc(N[C@H]3CCc4ccccc43)c3cc[nH]c3n2)cnn1C(C)C(=O)N1CCN(C)CC1 (stereo partly drawn) [Compound 18, 2-(4-((4-(((S)-2,3-dihydro-1H-inden-1-yl)amino)-7H-pyrrolo[2,3-d]pyrimidin-2-yl)amino)-5-methyl-1H-pyrazol-1-yl)-1-(4-methylpiperazin-1-yl)propan-1-one]
19 | 0.017 µM | 0.012 µM | CCn1cc(Nc2nc(N[C@@H](C)C3CC3)c3cc[nH]c3n2)cn1 [Compound 29]
20 | 0.115 µM | 0.051 µM | CC(C)n1ccc(Nc2nc(N[C@@H](C)C3CC3)c3nc[nH]c3n2)n1 [Compound 59, (S)-N6-(1-cyclopropylethyl)-N2-(1-isopropyl-1H-pyrazol-3-yl)-9H-purine-2,6-diamine]
21 | 0.078 µM | 0.067 µM | CC(C)n1cc(Nc2nc(N[C@@H](C)C3CCC3)c3cc[nH]c3n2)cn1 [Compound 42, (S)-N4-(1-cyclobutylethyl)-N2-(1-isopropyl-1H-pyrazol-4-yl)-7H-pyrrolo[2,3-d]pyrimidine-2,4-diamine]
22 | 0.065 µM | 0.05 µM | C[C@H](Nc1nc(Nc2cnn(CCN(C)C)c2)nc2[nH]ccc12)C1CC1 [Compound 41, (S)-N4-(1-cyclopropylethyl)-N2-(1-(2-(dimethylamino)ethyl)-1H-pyrazol-4-yl)-7H-pyrrolo[2,3-d]pyrimidine-2,4-diamine]
23 | 0.015 µM | 0.007 µM | CC(C)n1cc(Nc2nc(NC3CCC3)c3nc[nH]c3n2)cn1 [Compound 13, N6-cyclobutyl-N2-(1-isopropyl-1H-pyrazol-4-yl)-9H-purine-2,6-diamine]
24 | 0.013 µM and 0.032 µM | 0.009 µM and 0.019 µM | C[C@H](Nc1nc(Nc2cn([C@H](C)CO)nn2)nc2[nH]ccc12)C1CC1 [Compound 55, (R)-2-(4-((4-(((S)-1-cyclopropylethyl)amino)-7H-pyrrolo[2,3-d]pyrimidin-2-yl)amino)-1H-1,2,3-triazol-1-yl)propan-1-ol]
25 | 0.065 µM | 0.032 µM | Cc1cc(Nc2nc(N[C@@H](C)C3CC3)c3nc[nH]c3n2)nn1C(C)C [Compound 60, (S)-N6-(1-cyclopropylethyl)-N2-(1-isopropyl-5-methyl-1H-pyrazol-3-yl)-9H-purine-2,6-diamine]
26 | 0.058 µM and 0.113 µM and 0.088 µM | – | COCCn1cc(Nc2nc(N[C@@H](C)C3CC3)c3cc[nH]c3n2)nn1 [Compound 39, (S)-N4-(1-cyclopropylethyl)-N2-(1-(2-methoxyethyl)-1H-1,2,3-triazol-4-yl)-7H-pyrrolo[2,3-d]pyrimidine-2,4-diamine]
27 | 0.022 µM | 0.01 µM | CC(C)n1cc(Nc2nc(N[C@@H](C)C3CC3)c3nc[nH]c3n2)cn1 [Compound 12, (S)-N6-(1-cyclopropylethyl)-N2-(1-isopropyl-1H-pyrazol-4-yl)-9H-purine-2,6-diamine]
28 | 0.015 µM | 0.011 µM | COCC(C)n1cc(Nc2nc(N[C@@H](C)C3CC3)c3cc[nH]c3n2)cn1 (stereo partly drawn) [Compound 34, N4-((S)-1-cyclopropylethyl)-N2-(1-(1-methoxypropan-2-yl)-1H-pyrazol-4-yl)-7H-pyrrolo[2,3-d]pyrimidine-2,4-diamine]
29 | 0.063 µM | 0.055 µM | Cc1c(Nc2nc(N[C@@H](C)c3ccccc3)c3cc[nH]c3n2)cnn1C(C)C [Compound 24, (S)-N2-(1-isopropyl-5-methyl-1H-pyrazol-phenylethyl)-7H-pyrrolo[2,3-d]pyrimidine-2,4-diamine]
30 | 0.019 µM | 0.008 µM | Cn1cc(Nc2nc(NC3CCC3)c3cc[nH]c3n2)cn1 [Compound 7, N4-cyclobutyl-N2-(1-methyl-1H-pyrazol-4-yl)-7H-pyrrolo[2,3-d]pyrimidine-2,4-diamine]
31 | 0.027 µM | 0.021 µM | CC(O)Cn1cc(Nc2nc(N[C@@H](C)C3CC3)c3cc[nH]c3n2)nn1 (stereo partly drawn) [Compound 54, 1-(4-((4-(((S)-1-cyclopropylethyl)amino)-7H-pyrrolo[2,3-d]pyrimidin-2-yl)amino)-1H-1,2,3-triazol-1-yl)propan-2-ol]
